Results from US20240287047A1, “PESTICIDALLY ACTIVE DIAZINE-AMIDE COMPOUNDS” (SYNGENTA CROP PROTECTION AG, priority 2021, published 2024).

Assays:
Format in all cases: in vivo
Diabrotica balteata = assay: Example B2: Diabrotica balteata (corn root worm), maize sprouts, L2 larvae; settings: for percent control (mortality or growth inhibition) at 200 ppm: Diabrotica balteata, 96 h, application rate of 200 ppm, 4 days after infestation, read-out: control in at least one of the two categories (mortality or growth inhibition)
Protocol: Maize sprouts placed onto an agar layer in 24-well microtiter plates were treated with aqueous test solutions prepared from 10,000 ppm DMSO stock solutions by spraying. After drying, the plates were infested with L2 larvae (6 to 10 per well). The samples were assessed for mortality and growth inhibition in comparison to untreated samples 4 days after infestation.

Spodoptera littoralis [1] = assay: Example B6: Spodoptera littoralis, uptake by lettuce roots from agar; settings: 144 h, test rate of 12.5 ppm, 6 days after infestation, read-out: effect in at least one of the three categories (mortality, anti-feeding, or growth inhibition)
Description: Test compounds were applied by pipette from 10,000 ppm DMSO stock solutions into 24-well plates and mixed with agar. Lettuce seeds were placed onto the agar and the multi well plate was closed by another plate which contained also agar. After 7 days the compound was absorbed by the roots and the lettuce grew into the lid plate. The lettuce leaves were then cut off into the lid plate. Spodoptera eggs were pipetted through a plastic stencil onto a humid gel blotting paper and the lid plate was closed with it. The samples were assessed for mortality, anti-feedant effect and growth inhibition in comparison to untreated samples 6 days after infestation.

Spodoptera littoralis [2] = assay: Example B5: Spodoptera littoralis (Egyptian cotton leaf worm), cotton leaf discs, L1 larvae; settings: foliar, 72 h, application rate of 200 ppm, 3 days after infestation, read-out: control in at least one of the three categories (mortality, anti-feedant effect, or growth inhibition)
Protocol: Cotton leaf discs were placed onto agar in 24-well microtiter plates and sprayed with aqueous test solutions prepared from 10,000 ppm DMSO stock solutions. After drying the leaf discs were infested with five L1 larvae. The samples were assessed for mortality, anti-feeding effect, and growth inhibition in comparison to untreated samples 3 days after infestation. Control of Spodoptera littoralis by a test sample is given when at least one of the categories mortality, anti-feedant effect, and growth inhibition is higher than the untreated sample.

Chilo suppressalis = assay: Example B1: Chilo suppressalis (striped rice stemborer), artificial diet, L2 larvae; settings: 144 h, application rate of 200 ppm, 6 days after infestation, read-out: control in at least one of the three categories (mortality, anti-feedant effect, or growth inhibition)
Protocol: 24-well microtiter plates with artificial diet were treated with aqueous test solutions prepared from 10,000 ppm DMSO stock solutions by pipetting. After drying, the plates were infested with L2 larvae (6-8 per well). The samples were assessed for mortality, anti-feeding effect, and growth inhibition in comparison to untreated samples 6 days after infestation. Control of Chilo suppressalis by a test sample is given when at least one of the categories mortality, anti-feedant effect, and growth inhibition is higher than the untreated sample.

Plutella xylostella [3] = assay: Example B4: Plutella xylostella (diamond back moth), artificial diet, eggs; settings: Plutella xylostella, 192 h; application rate of 200 ppm; 8 days after infestation; read-out: control in at least one of the two categories (mortality or growth inhibition)
Protocol: 24-well microtiter plates with artificial diet were treated with aqueous test solutions prepared from 10′000 ppm DMSO stock solutions by pipetting. After drying, Plutella eggs were pipetted through a plastic stencil onto a gel blotting paper and the plate was closed with it. The samples were assessed for mortality and growth inhibition in comparison to untreated samples 8 days after infestation.

Plutella xylostella [4] = assay: Example B8: Plutella xylostella (diamondback moth), 96-well artificial diet; settings: 216 h, application rate of 500 ppm, 9 days after infestation
Protocol: 96-well microtiter plates containing artificial diet were treated with aqueous test solutions, prepared from 10,000 ppm DMSO stock solutions, by a liquid handling robot. After drying, eggs (˜30 per well) were infested onto a netted lid which was suspended above the diet. The eggs hatch and L1 larvae move down to the diet. The samples were assessed for mortality 9 days after infestation.

Myzus persicae [5] = assay: Example B7: Myzus persicae (green peach aphid), 96-well sucrose solution; settings: 120 h, application rate of 50 ppm, 5 days after infestation
Protocol: Test compounds prepared from 10′000 ppm DMSO stock solutions were applied by a liquid handling robot into 96-well microtiter plates and mixed with a sucrose solution. Parafilm was stretched over the 96-well microtiter plate and a plastic stencil with 96 holes was placed onto the plate. Aphids were sieved into the wells directly onto the Parafilm. The infested plates were closed with a gel blotting card and a second plastic stencil and then turned upside down. The samples were assessed for mortality 5 days after infestation.

Myzus persicae [6] = assay: Example B3: Myzus persicae (green peach aphid) intrinsic activity; settings: 120 h, test rate of 12 ppm, 5 days after infestation
Protocol: Test compounds prepared from 10′000 ppm DMSO stock solutions were applied by pipette into 24-well microtiter plates and mixed with sucrose solution. The plates were closed with a stretched Parafilm. A plastic stencil with 24 holes was placed onto the plate and infested pea seedlings were placed directly on the Parafilm. The infested plate was closed with a gel blotting paper and another plastic stencil and then turned upside down. The samples were assessed for mortality 5 days after infestation.

Myzus persicae [7] = assay: Example B9: Myzus persicae (green peach aphid) feeding/contact activity, sunflower leaf discs; settings: foliar, 144 h, application rate of 200 ppm, 6 days after infestation
Protocol: Sunflower leaf discs were placed onto agar in a 24-well microtiter plate and sprayed with aqueous test solutions prepared from 10,000 ppm DMSO stock solutions. After drying, the leaf discs were infested with an aphid population of mixed ages. The samples were assessed for mortality 6 days after infestation.

Q: With `C[C@H](NC(=O)c1cc(C(F)(F)F)cc(C(F)(F)F)c1)c1nccnc1-c1cnccn1` [Compound E3, N-[(1S)-1-(3-pyrazin-2-ylpyrazin-2-yl)ethyl]-3,5-bis(trifluoromethyl)benzamide] as the compound, how does the percent control (mortality or growth inhibition) at 200 ppm (Diabrotica balteata) read?
A: ≥ 80%

Q: And the percent effect (mortality, anti-feeding or growth inhibition) at 12.5 ppm (Spodoptera littoralis [1])?
A: ≥ 80%

Q: And the percent control (mortality, anti-feedant effect or growth inhibition) at 200 ppm (Spodoptera littoralis [2])?
A: ≥ 80%

Q: What about the percent control (mortality, anti-feedant effect or growth inhibition) at 200 ppm (Chilo suppressalis) of the same compound?
A: ≥ 80%

Q: What about the percent control (mortality or growth inhibition) at 200 ppm (Plutella xylostella [3]) of the same compound?
A: ≥ 80%

Q: And the mortality at 500 ppm (Plutella xylostella [4])?
A: ≥ 80%

Q: And the mortality at 50 ppm (Myzus persicae [5])?
A: ≥ 80%

Q: What about the mortality at 12 ppm (Myzus persicae [6]) of the same compound?
A: ≥ 80%

Q: Which percent control (mortality or growth inhibition) at 200 ppm (Diabrotica balteata) does the source give for `CC(NC(=O)c1cc(Br)cc(C(F)(F)F)c1)c1nccnc1-c1cnccn1` (centres unmarked) [Compound P7, 3-bromo-N-[1-(3-pyrazin-2-ylpyrazin-2-yl)ethyl]-5-(trifluoromethyl)benzamide] here?
A: ≥ 80%

Q: And the mortality at 200 ppm (Myzus persicae [7])?
A: ≥ 80%

Q: What about the percent control (mortality, anti-feedant effect or growth inhibition) at 200 ppm (Spodoptera littoralis [2]) of the same compound?
A: ≥ 80%

Q: What about the percent control (mortality, anti-feedant effect or growth inhibition) at 200 ppm (Chilo suppressalis) of the same compound?
A: ≥ 80%

Q: What about the percent control (mortality or growth inhibition) at 200 ppm (Plutella xylostella [3]) of the same compound?
A: ≥ 80%

Q: Which percent control (mortality or growth inhibition) at 200 ppm (Diabrotica balteata) does the source give for `CC(NC(=O)c1cc(Cl)cc(Br)c1)c1nccnc1-c1cnccn1` (centres unmarked) [Compound P12, 3-bromo-5-chloro-N-[1-(3-pyrazin-2-ylpyrazin-2-yl)ethyl]benzamide] here?
A: ≥ 80%

Q: What about the mortality at 200 ppm (Myzus persicae [7]) of the same compound?
A: ≥ 80%

Q: What about the percent control (mortality, anti-feedant effect or growth inhibition) at 200 ppm (Spodoptera littoralis [2]) of the same compound?
A: ≥ 80%

Q: And the percent control (mortality or growth inhibition) at 200 ppm (Plutella xylostella [3])?
A: ≥ 80%

Q: `CC(NC(=O)c1cc(Cl)nc(C(F)(F)F)c1)c1nccnc1-c1cnccn1` (centres unmarked) [Compound P14, 2-chloro-N-[1-(3-pyrazin-2-ylpyrazin-2-yl)ethyl]-6-(trifluoromethyl)pyridine-4-carboxamide] was tested. Which percent control (mortality or growth inhibition) at 200 ppm (Diabrotica balteata) did it give?
A: ≥ 80%

Q: And the mortality at 200 ppm (Myzus persicae [7])?
A: ≥ 80%

Q: And the percent control (mortality, anti-feedant effect or growth inhibition) at 200 ppm (Spodoptera littoralis [2])?
A: ≥ 80%

Q: What about the percent control (mortality, anti-feedant effect or growth inhibition) at 200 ppm (Chilo suppressalis) of the same compound?
A: ≥ 80%

Q: What about the percent control (mortality or growth inhibition) at 200 ppm (Plutella xylostella [3]) of the same compound?
A: ≥ 80%

Q: For `CC(NC(=O)c1cc(I)cc(I)c1)c1nccnc1-c1cnccn1` (centres unmarked) [Compound P17, 3,5-diiodo-N-[1-(3-pyrazin-2-ylpyrazin-2-yl)ethyl]benzamide], which percent control (mortality or growth inhibition) at 200 ppm (Diabrotica balteata) is on record?
A: ≥ 80%

Q: And the mortality at 200 ppm (Myzus persicae [7])?
A: ≥ 80%

Q: And the percent control (mortality, anti-feedant effect or growth inhibition) at 200 ppm (Spodoptera littoralis [2])?
A: ≥ 80%

Q: What about the percent control (mortality or growth inhibition) at 200 ppm (Plutella xylostella [3]) of the same compound?
A: ≥ 80%

Q: `Cc1cc(C(=O)NC(C)c2nccnc2-c2cnccn2)cc(C(F)(F)F)c1` (centres unmarked) [Compound P18, 3-methyl-N-[1-(3-pyrazin-2-ylpyrazin-2-yl)ethyl]-5-(trifluoromethyl)benzamide] was tested. Which mortality at 200 ppm (Myzus persicae [7]) did it give?
A: ≥ 80%

Q: What about the percent control (mortality, anti-feedant effect or growth inhibition) at 200 ppm (Chilo suppressalis) of the same compound?
A: ≥ 80%

Q: What about the percent control (mortality or growth inhibition) at 200 ppm (Plutella xylostella [3]) of the same compound?
A: ≥ 80%

Q: With `CC(NC(=O)c1cc(C(F)(F)F)cc(C2(C#N)CC2)c1)c1nccnc1-c1cnccn1` (centres unmarked) [Compound P21] as the compound, how does the mortality at 50 ppm (Diabrotica balteata; Concentration 50 ppm, Diabrotica balteata (Example B32)) read?
A: 100%

Q: And the percent control (mortality or growth inhibition) at 200 ppm (Diabrotica balteata)?
A: ≥ 80%

Q: What about the mortality at 200 ppm (Myzus persicae [7]) of the same compound?
A: ≥ 80%

Q: And the percent control (mortality, anti-feedant effect or growth inhibition) at 200 ppm (Spodoptera littoralis [2])?
A: ≥ 80%

Q: What about the percent control (mortality, anti-feedant effect or growth inhibition) at 200 ppm (Chilo suppressalis) of the same compound?
A: ≥ 80%

Q: What about the percent control (mortality or growth inhibition) at 200 ppm (Plutella xylostella [3]) of the same compound?
A: ≥ 80%

Q: And the mortality at 12 ppm (Myzus persicae [6])?
A: ≥ 80%

Q: How did the mortality at 200 ppm (Myzus persicae [7]) turn out when `CC(NC(=O)c1cc(F)cc(C(F)(F)F)c1)c1nccnc1-c1cnccn1` (centres unmarked) [Compound P25, 3-fluoro-N-[1-(3-pyrazin-2-ylpyrazin-2-yl)ethyl]-5-(trifluoromethyl)benzamide] was run?
A: ≥ 80%

Q: What about the percent control (mortality or growth inhibition) at 200 ppm (Plutella xylostella [3]) of the same compound?
A: ≥ 80%
